Data as given in patent US20080113032A1, “Scalp Desensitizing Formulation” (BMM PowerMoves, LLC, priority 2001, published 2008).

Key:
scalp or skin = test: Desensitization of the scalp or skin, pain relief in hair treatment and manipulation procedures; type: in vivo; details: benzocaine concentration approximately 20 to 30 weight percent of the formulation
[1] = Recrystallization of benzocaine from the formulation after cooling to room temperature; type: physicochemical
Procedure: The formulation is prepared by first mixing the topical anesthetic, solubilizer, homopolymers and copolymers together and heating the mixture at about 80° C. while stirring. The perfume oil, skin conditioning oils and water or a thickening agent, depending on the type of composition desired, can be added after dissolution of all of the above components being heated has occurred.
This overall recrystallization problem is easily remedied by reheating the mixture either in a hot water bath or briefly in a microwave oven (<10 seconds). […] This is an improvement over the known art.
The following components were dissolved by stirring while heating in a water bath at 80° C. All of the following protocols are actual experiments developed for the production of the formulation.
After the above components were dissolved, the following components were added to the resulting solution while still heating.
The solution was then cooled to room temperature.

benzocaine staying in solution ([1]; about 20 weight percent benzocaine, formulation cooled to room temperature): stays in solution
re-solubility of the reheated mixture ([1]; about 22 to about 30 weight percent benzocaine, reheated in hot water bath or microwave oven (<10 seconds)): Total re-solubility is achieved
precipitation in the mixture ([1]; about 22 to about 30 weight percent benzocaine, several hours after cooling to room temperature): some precipitation is observed
Structure (SMILES): CCOC(=O)c1ccc(N)cc1 [benzocaine, ethyl-p-aminobenzoate]
relief of pain associated with hair treatment and manipulation procedures (scalp or skin): effective at relieving the pain
recrystallization ([1]; about 20 weight percent benzocaine, after 24 hours): very small amount of recrystallization may be observed
